Results taken from patent US8034314B2, “Photoreactive compound specifically binding to calcium binding proteins” (priority 2004, dated 2011).

Experiments:
[1] = system: U-937 human monocytic cell line; assay: STS-induced apoptotic cell death of U-937 cells (acridine orange/ethidium bromide staining); format: cell-based; details: STS 1.25 μM, no AzRu
Method: The U-937 human monocytic cell line was grown under an atmosphere of 95% air and 5% CO2 in RPMI 1640 supplemented with 10% fetal calf serum (FCS), 1 mM L-glutamine, 100 U/ml penicillin, and 100 μg/ml streptomycin. Cells were plated at a density of 5.4×10^4 cells/cm^2 in 24-well plates and then incubated with or without AzRu for 18 hr before exposure to 1.25 μM staurosporine (STS) to induce apoptosis. Cell viability was analyzed 5 and 7 hrs after STS addition by staining with 100 μg/ml acridine orange (AcOr) and 100 μg/ml ethidium bromide (EtBr) in PBS. The cells were then visualized by fluorescence microscopy (Olympus IX51) and images were recorded on an Olympus DP70 camera, using an SWB filter.
AzRu had no effect on the viability of the cells that were not exposed to STS. In FIG. 13 A, U-937 cells were incubated without (a, c) or with AzRu (10 μM) (b,d) for 18 hrs and thereafter were exposed to STS (1.25 μM) (c and d). After five hours the cells were stained with acridine orange and ethidium bromide. Arrows indicate cells in early apoptotic state, represented as degraded nucleus, but with intact cell membrane (stained by acridine orange). Arrowheads indicate a late apoptotic state, as shown by the presence of a degraded nucleus (stained by both acridine orange and ethidium bromide). Scale bar, 20 μm. In FIG. 13 B, quantitative analysis of apoptotic cell death in control cells and cells exposed to AzRu was assessed 5 and 7 hr after their exposure to STS (1.25 by ANOVA and t-test. P<0.001 was considered statistically significant (***). Data are the means±SEM, n=3. In each independent experiment, approximately 200 cells were counted for each treatment.

[2] = system: mitochondrial uniporter (Ca2+ uptake in mitochondria); assay: Ca2+ uptake/accumulation in isolated mitochondria; format: biochemical, rat; details: no UV; mean ± SEM of 3 to 5 experiments
Method: (§1) Sarcoplasmic reticulum (SR) membranes were prepared from rabbit fast twitch skeletal muscle as described by Saito [Saito et al.: J. Cell Biol. 99 (1984) 875-85]. Mitochondria were isolated from rat liver as described by us previously [Gincel D. et al.: Biochem J. 358 (2001) 147-55]. VDAC was purified by a method developed in our laboratory, using columns of hydroxyapatite and reactive red agarose [Gincel D. et al.: J. Bioenerget. Biomembr. 32 (2000) 571-83].
Ca^2+-accumulation in freshly prepared mitochondria (0.5 mg/ml) was assayed for 1 to 20 minutes at 30° C. in the presence of 225 mM mannitol, 75 mM sucrose, 120 μM CaCl2 (containing 3×10^4 cpm/nmol ^45Ca^2+), 5 mM HEPES/KOH pH 7.0, and 5 mM succinate with 0.1 mM Pi, or 4 mM MgCl2 with 3 mM ATP. The Ca^2+-uptake was terminated by rapid Millipore filtration, followed by a wash with 5 ml of 0.15 M KCl. The Ca^2+-accumulation in SR was determined as described previously [Shoshan-Barmatz V. & Shaineberg A.: Biochim. Biophys. Acta 1065 (1991) 82-8]. Electron transport from succinate to cytochrome c was described in above cited article [Gincel D. et al.: J. Bioenerget. Biomembr. 32 (2000) 571-83].
The effect of AzRu on mitochondrial process of electron transport from the donor succinate to the acceptor cytochrome c was characterized as described above. Although said electron transfer involves several dozens electron transfer carriers, this reaction was not affected by azido-ruthenium of this invention.
(§2) The hexavalent RuR and the trivalent Ru360 have been employed in various studies as inhibitors of Ca^2+-dependent reactions. As shown here, even with no photoactivation, AzRu, in contrast to RuR and Ru360, was effective in inhibiting the SR Ca^2+-pump (Table 3). […] This may open the way to inhibit other Ca^2+-dependent activities that are not sensitive to RuR, such as the plasma membrane Ca^2+-ATPase. […] RuR was employed to improve mitochondrial production in ischemic reperfused pig myocardium, was employed in the nervous system to follow neuronal death progress and can act as an anti-oxidant in certain conditions. Considering the potent activity of AzRu in RuR-insensitive reactions (see Table 3), its applications in various biological studies should be explored. Ca^2+ accumulation in SR and mitochondria was assayed as described above in the absence and presence of different concentrations of RuR (0.05-100 μM), Ru360 (0.01-100 μM) or AzRu (0.1-100 μM). The concentration required for 50% inhibition (IC50) was derived from the plot of Ca^2+ accumulation activity or ryanodine binding as a function of the reagent concentration. The results are the mean±SEM of 3 to 5 experiments (Table 3).

[3] = molecular target: T1, ryanodine receptor (RyR) / Ca2+-release channel (Oryctolagus cuniculus, UniProt P11716); assay: [3H]ryanodine binding to SR membranes; parameters: species or system rabbit; details: no UV; mean ± SEM of 3 to 5 experiments
T1 construct: from tissue; host or cells: rabbit fast twitch skeletal muscle SR membranes
T1 sequence (P11716 whole entry): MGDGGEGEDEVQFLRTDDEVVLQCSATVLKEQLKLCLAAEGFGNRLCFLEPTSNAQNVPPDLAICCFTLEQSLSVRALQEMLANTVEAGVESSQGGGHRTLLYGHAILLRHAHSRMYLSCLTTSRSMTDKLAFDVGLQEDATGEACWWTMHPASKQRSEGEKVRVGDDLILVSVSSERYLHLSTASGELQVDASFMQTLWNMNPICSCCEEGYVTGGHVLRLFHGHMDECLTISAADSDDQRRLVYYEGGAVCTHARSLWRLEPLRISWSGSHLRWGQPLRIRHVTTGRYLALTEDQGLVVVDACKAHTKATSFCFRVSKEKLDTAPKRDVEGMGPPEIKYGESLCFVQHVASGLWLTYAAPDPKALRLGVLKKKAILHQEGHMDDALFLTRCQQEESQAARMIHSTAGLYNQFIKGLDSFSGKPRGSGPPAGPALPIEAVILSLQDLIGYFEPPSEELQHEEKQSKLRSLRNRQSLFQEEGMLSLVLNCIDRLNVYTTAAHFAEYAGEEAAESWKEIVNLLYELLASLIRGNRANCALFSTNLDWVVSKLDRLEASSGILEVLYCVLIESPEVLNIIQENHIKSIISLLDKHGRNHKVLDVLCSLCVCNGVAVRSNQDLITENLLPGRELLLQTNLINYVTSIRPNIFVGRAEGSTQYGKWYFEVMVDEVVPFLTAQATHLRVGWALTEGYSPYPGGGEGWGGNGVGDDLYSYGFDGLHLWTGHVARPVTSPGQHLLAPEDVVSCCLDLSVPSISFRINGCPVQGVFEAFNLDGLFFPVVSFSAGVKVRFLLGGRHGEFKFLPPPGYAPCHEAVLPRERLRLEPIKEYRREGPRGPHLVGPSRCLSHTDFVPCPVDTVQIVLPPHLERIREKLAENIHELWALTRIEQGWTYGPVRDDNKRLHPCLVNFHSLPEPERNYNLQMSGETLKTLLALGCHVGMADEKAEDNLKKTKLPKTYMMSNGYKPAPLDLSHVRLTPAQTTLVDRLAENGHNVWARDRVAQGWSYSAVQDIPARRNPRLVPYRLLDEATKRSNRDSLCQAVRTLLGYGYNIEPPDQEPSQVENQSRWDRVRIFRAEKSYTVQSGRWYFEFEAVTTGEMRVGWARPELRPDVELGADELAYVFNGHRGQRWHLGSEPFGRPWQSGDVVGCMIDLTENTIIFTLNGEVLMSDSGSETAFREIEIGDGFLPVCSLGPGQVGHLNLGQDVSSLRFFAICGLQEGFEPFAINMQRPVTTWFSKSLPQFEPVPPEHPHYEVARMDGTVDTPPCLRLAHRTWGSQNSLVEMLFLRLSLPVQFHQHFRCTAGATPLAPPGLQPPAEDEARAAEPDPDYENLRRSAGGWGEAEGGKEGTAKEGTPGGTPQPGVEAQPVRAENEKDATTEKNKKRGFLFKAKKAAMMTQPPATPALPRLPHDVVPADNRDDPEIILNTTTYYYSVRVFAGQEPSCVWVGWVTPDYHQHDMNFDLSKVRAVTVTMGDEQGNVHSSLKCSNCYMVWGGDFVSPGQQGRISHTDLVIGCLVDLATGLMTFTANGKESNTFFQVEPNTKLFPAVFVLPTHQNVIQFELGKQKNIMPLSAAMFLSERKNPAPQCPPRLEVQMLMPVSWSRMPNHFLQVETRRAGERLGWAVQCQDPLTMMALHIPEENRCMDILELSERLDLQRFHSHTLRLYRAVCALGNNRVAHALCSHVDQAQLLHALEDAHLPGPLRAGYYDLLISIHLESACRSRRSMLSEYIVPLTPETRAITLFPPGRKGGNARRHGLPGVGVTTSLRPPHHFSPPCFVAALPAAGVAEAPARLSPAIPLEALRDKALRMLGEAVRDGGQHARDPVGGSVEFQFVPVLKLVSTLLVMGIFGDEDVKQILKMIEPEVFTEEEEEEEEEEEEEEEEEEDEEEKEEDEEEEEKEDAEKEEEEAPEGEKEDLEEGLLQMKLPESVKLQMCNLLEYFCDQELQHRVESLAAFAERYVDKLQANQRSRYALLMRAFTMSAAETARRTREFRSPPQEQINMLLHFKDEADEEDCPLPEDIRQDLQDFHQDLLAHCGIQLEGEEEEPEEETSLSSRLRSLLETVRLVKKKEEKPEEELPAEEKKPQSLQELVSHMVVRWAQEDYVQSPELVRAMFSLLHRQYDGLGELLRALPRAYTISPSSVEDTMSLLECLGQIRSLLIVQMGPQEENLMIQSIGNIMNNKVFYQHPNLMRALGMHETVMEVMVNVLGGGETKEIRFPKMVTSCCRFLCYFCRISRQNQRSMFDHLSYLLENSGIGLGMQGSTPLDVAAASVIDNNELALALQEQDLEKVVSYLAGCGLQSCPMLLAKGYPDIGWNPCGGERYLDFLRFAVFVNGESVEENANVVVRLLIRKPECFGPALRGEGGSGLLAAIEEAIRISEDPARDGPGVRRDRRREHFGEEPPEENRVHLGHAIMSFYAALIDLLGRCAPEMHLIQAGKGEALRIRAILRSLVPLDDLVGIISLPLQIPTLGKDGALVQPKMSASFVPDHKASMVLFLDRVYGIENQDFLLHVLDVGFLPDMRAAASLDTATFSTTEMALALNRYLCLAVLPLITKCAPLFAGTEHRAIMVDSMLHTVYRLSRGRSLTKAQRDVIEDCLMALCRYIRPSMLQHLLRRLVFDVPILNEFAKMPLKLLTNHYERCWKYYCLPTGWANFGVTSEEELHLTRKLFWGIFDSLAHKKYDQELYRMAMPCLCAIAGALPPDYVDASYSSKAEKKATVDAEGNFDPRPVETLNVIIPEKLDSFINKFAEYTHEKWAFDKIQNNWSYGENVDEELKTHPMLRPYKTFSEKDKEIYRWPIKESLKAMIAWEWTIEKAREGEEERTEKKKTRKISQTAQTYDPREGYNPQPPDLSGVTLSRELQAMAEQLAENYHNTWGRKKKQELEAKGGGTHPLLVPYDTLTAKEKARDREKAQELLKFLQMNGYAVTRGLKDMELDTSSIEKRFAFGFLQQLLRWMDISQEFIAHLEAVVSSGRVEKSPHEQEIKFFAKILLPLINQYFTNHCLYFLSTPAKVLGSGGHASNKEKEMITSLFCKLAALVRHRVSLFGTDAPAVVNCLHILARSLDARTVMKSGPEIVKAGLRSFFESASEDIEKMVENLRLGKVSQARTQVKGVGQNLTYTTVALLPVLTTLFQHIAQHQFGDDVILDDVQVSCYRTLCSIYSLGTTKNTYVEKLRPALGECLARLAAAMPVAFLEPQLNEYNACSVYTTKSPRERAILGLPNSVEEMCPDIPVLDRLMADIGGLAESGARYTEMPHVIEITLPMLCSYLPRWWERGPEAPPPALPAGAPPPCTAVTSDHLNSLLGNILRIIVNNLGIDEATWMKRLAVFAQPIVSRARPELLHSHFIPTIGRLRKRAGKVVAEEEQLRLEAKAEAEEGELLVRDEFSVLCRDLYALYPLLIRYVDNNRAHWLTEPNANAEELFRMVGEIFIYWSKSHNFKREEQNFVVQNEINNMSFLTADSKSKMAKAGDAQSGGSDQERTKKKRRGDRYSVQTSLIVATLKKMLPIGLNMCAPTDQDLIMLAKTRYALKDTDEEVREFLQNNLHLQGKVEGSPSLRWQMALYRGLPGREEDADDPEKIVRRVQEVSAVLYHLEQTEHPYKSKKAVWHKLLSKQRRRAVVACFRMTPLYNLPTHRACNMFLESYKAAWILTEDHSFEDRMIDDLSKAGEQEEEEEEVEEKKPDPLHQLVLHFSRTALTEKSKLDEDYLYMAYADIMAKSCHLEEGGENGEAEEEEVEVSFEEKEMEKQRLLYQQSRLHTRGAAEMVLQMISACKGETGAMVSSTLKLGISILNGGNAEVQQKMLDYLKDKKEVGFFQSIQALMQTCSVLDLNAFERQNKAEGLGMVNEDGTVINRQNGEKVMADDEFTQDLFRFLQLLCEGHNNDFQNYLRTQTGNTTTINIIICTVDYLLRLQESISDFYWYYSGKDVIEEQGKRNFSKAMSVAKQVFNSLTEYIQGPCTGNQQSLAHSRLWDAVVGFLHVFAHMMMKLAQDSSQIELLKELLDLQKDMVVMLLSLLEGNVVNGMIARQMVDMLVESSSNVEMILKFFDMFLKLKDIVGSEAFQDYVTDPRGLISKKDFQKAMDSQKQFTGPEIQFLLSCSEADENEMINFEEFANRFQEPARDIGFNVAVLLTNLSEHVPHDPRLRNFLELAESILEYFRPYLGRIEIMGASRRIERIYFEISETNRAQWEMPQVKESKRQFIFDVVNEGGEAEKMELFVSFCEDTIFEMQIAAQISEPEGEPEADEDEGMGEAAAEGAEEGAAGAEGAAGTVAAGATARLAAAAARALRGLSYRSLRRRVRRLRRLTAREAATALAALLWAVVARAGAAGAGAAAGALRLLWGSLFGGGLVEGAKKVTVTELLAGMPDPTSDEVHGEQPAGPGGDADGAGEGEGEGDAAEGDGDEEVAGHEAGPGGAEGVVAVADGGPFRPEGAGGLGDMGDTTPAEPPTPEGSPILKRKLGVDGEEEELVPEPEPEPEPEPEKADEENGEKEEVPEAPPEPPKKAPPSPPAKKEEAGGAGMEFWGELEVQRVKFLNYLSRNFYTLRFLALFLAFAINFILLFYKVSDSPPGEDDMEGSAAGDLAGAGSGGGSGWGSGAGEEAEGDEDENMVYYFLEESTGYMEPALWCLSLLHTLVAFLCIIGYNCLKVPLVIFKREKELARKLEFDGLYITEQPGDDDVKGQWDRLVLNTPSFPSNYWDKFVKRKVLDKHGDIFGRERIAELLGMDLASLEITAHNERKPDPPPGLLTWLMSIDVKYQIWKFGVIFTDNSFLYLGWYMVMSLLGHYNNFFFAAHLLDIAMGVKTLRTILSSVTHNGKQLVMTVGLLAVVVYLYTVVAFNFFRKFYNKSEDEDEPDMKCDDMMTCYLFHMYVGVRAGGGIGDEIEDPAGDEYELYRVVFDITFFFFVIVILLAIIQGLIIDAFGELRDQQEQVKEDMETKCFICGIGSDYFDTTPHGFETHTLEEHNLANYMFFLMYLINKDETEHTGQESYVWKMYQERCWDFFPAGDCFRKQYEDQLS
Method: as §1
For the determination of [^3H]ryanodine binding, SR membranes were incubated for 20-60 min at 37° C. in a standard binding solution containing 1M NaCl, 20 mM MOPS (pH 7.4), 50 μM free Ca^2+ and 20 nM [^3H]ryanodine. Unbound ryanodine was separated from protein-bound ryanodine by vacuum filtration of the sample through nitrocellulose filters (0.45 μm), followed by two washes with 4 ml ice-cold buffer containing 0.2 M NaCl, 10 mM MOPS (pH 7.4) and 50 μM CaCl2. The retained radioactivity in the dried filters was determined by liquid scintillation counting. Specific binding of [^3H]ryanodine was defined as the difference between the binding in the presence of 20 nM [^3H]ryanodine and in the presence of 20 μM unlabeled ryanodine.
as §2

IC50 [2] [nM] | IC50 [3] [µM] | SMILES | Apoptotic cell death (% of the cells) ([1]; 5 hrs exposure) | Apoptotic cell death (% of the cells) ([1]; 7 hrs exposure) [%]
– | – | CN[C@@H]1C[C@H]2O[C@@](C)([C@@H]1OC)n1c3ccccc3c3c4c(c5c6ccccc6n2c5c31)C(=O)NC4 [STS, staurosporine, reference compound] | about 42% | ~76
160 ± 30 | 7.2 ± 0.55 | Cl.Cl.Cl.Cl.Cl.Cl.N.N.N.N.N.N.N.N.N.N.N.N.N.N.[O-2].[O-2].[Ru+3].[Ru+3].[Ru+4] [RuR, ruthenium red, reference compound] | – | –
